Results from PubChem BioAssay AID2060894 (Molecular Pharmacology Branch, DTP, NCI, 2025).

Tested on: K12877-001-R-J1-PDC complex spheroid viability
Assay: Anticancer human tumor K12877-001-R-J1-PDC patient-derived lung adenocarcinoma cell line growth inhibition [RAS]
Details: for viability, T/C: stronger effect = lower value
In short: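 Tumour cells grown as complex spheroids with HUVEC endothelial cells and mesenchymal stem cells, treated with RAS pathway inhibitor combinations. Each agent spans half-log steps from near clinical Cmax, or 10 microM where Cmax is unknown.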

[1] = curve of first compound, second compound 0.000949 µM
[2] = curve of first compound, second compound 0.003 µM
[3] = curve of first compound, second compound 0.00949 µM
[4] = curve of first compound, second compound 0.03 µM
[5] = curve of first compound, second compound 0.0949 µM
[6] = curve of first compound, second compound 0.3 µM
[7] = second compound 0.000949 µM, first compound 0.00316 µM
[8] = second compound 0.000949 µM, first compound 0.01 µM
[9] = second compound 0.000949 µM, first compound 0.0316 µM
[10] = second compound 0.000949 µM, first compound 0.1 µM
[11] = second compound 0.000949 µM, first compound 0.316 µM
[12] = second compound 0.000949 µM, first compound 1 µM
[13] = second compound 0.003 µM, first compound 0.00316 µM
[14] = second compound 0.003 µM, first compound 0.01 µM
[15] = second compound 0.003 µM, first compound 0.0316 µM
[16] = second compound 0.003 µM, first compound 0.1 µM
[17] = second compound 0.003 µM, first compound 0.316 µM
[18] = second compound 0.003 µM, first compound 1 µM
[19] = second compound 0.00949 µM, first compound 0.00316 µM
[20] = second compound 0.00949 µM, first compound 0.01 µM
[21] = second compound 0.00949 µM, first compound 0.0316 µM
[22] = second compound 0.00949 µM, first compound 0.1 µM
[23] = second compound 0.00949 µM, first compound 0.316 µM
[24] = second compound 0.00949 µM, first compound 1 µM
[25] = second compound 0.03 µM, first compound 0.00316 µM
[26] = second compound 0.03 µM, first compound 0.01 µM
[27] = second compound 0.03 µM, first compound 0.0316 µM
[28] = second compound 0.03 µM, first compound 0.1 µM
[29] = second compound 0.03 µM, first compound 0.316 µM
[30] = second compound 0.03 µM, first compound 1 µM
[31] = second compound 0.0949 µM, first compound 0.00316 µM
[32] = second compound 0.0949 µM, first compound 0.01 µM
[33] = second compound 0.0949 µM, first compound 0.0316 µM
[34] = second compound 0.0949 µM, first compound 0.1 µM
[35] = second compound 0.0949 µM, first compound 0.316 µM
[36] = second compound 0.0949 µM, first compound 1 µM
[37] = second compound 0.3 µM, first compound 0.00316 µM
[38] = second compound 0.3 µM, first compound 0.01 µM
[39] = second compound 0.3 µM, first compound 0.0316 µM
[40] = second compound 0.3 µM, first compound 0.1 µM
[41] = second compound 0.3 µM, first compound 0.316 µM
[42] = second compound 0.3 µM, first compound 1 µM
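Also: spheroids exposed to agents for one week before readout.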

Nc1ccn(C2OC(CO)C(O)C2(F)F)c(=O)n1 (stereo not drawn) + CCn1c(-c2cc(N3CCN(C)CC3)cnc2C(C)OC)c2c3cc(ccc31)-c1csc(n1)CC(NC(=O)C1CC1C)C(=O)N1CCCC(N1)C(=O)OCC(C)(C)C2
IC50 [1]: 13.9 nM | IC50 [2]: 13.4 nM | IC50 [3]: 11.6 nM | IC50 [4]: 17.5 nM | IC50 [5]: 16.8 nM | IC50 [6]: 17.4 nM | viability, T/C [7]: 76.3% | viability, T/C [8]: 66.7% | viability, T/C [9]: 8.22% | viability, T/C [10]: 4.35% | viability, T/C [11]: 4.92% | viability, T/C [12]: 5.37% | viability, T/C [13]: 62.2% | viability, T/C [14]: 64% | viability, T/C [15]: 10.9% | viability, T/C [16]: 4.55% | viability, T/C [17]: 4.11% | viability, T/C [18]: 4.17% | viability, T/C [19]: 59.7% | viability, T/C [20]: 55.8% | viability, T/C [21]: 9.86% | viability, T/C [22]: 3.95% | viability, T/C [23]: 4.84% | viability, T/C [24]: 4.74% | viability, T/C [25]: 93.2% | viability, T/C [26]: 86.8% | viability, T/C [27]: 10.9% | viability, T/C [28]: 4.44% | viability, T/C [29]: 4.77% | viability, T/C [30]: 3.54% | viability, T/C [31]: 103% | viability, T/C [32]: 80.9% | viability, T/C [33]: 12.4% | viability, T/C [34]: 3.68% | viability, T/C [35]: 3.46% | viability, T/C [36]: 4.36% | viability, T/C [37]: 84.6% | viability, T/C [38]: 80.6% | viability, T/C [39]: 17% | viability, T/C [40]: 2.67% | viability, T/C [41]: 3.61% | viability, T/C [42]: 2.74%

C#Cc1c(F)ccc2cc(O)cc(-c3ncc4c(N5CC6CCC(C5)N6)nc(OCC56CCCN5CC(F)C6)nc4c3F)c12 (stereo not drawn)
viability, T/C (compound 0.0316 µM): 105% [middle of 8 runs] | viability, T/C (compound 0.1 µM): 107% [middle of 8 runs] | viability, T/C (compound 0.316 µM): 110% [middle of 8 runs] | viability, T/C (compound 1 µM): 110% [middle of 8 runs] | viability, T/C (compound 3.16 µM): 101% [middle of 8 runs] | viability, T/C (compound 10 µM): 96.5% [middle of 8 runs] | IC50 (compound alone, run of 09/09/2024): > 10000 nM

C=CC(=O)Nc1cc(Nc2nccc(-c3cn(C)c4ccccc34)n2)c(OC)cc1N(C)CCN(C)C + CCn1c(-c2cc(N3CCN(C)CC3)cnc2C(C)OC)c2c3cc(ccc31)-c1csc(n1)CC(NC(=O)C1CC1C)C(=O)N1CCCC(N1)C(=O)OCC(C)(C)C2
IC50 [1]: > 1000 nM | IC50 [2]: > 1000 nM | IC50 [3]: > 1000 nM | IC50 [4]: > 1000 nM | IC50 [5]: > 1000 nM | IC50 [6]: > 1000 nM | viability, T/C [7]: 90.8% | viability, T/C [8]: 69.3% | viability, T/C [9]: 83.4% | viability, T/C [10]: 78.9% | viability, T/C [11]: 82.4% | viability, T/C [12]: 71.3% | viability, T/C [13]: 73.7% | viability, T/C [14]: 70.3% | viability, T/C [15]: 66.1% | viability, T/C [16]: 74.4% | viability, T/C [17]: 74.9% | viability, T/C [18]: 72% | viability, T/C [19]: 82.9% | viability, T/C [20]: 71.4% | viability, T/C [21]: 69% | viability, T/C [22]: 69.6% | viability, T/C [23]: 63% | viability, T/C [24]: 73% | viability, T/C [25]: 89.3% | viability, T/C [26]: 83.2% | viability, T/C [27]: 80.4% | viability, T/C [28]: 75.9% | viability, T/C [29]: 90.2% | viability, T/C [30]: 93.1% | viability, T/C [31]: 106% | viability, T/C [32]: 104% | viability, T/C [33]: 125% | viability, T/C [34]: 97.7% | viability, T/C [35]: 87.7% | viability, T/C [36]: 84.7% | viability, T/C [37]: 90% | viability, T/C [38]: 96.1% | viability, T/C [39]: 93% | viability, T/C [40]: 89.8% | viability, T/C [41]: 82.5% | viability, T/C [42]: 73.7%

NC1c2ccccc2OC12CCN(c1cnc3c(N4CCCc5ncccc54)n[nH]c3n1)CC2 (stereo not drawn) + CCn1c(-c2cc(N3CCN(C)CC3)cnc2C(C)OC)c2c3cc(ccc31)-c1csc(n1)CC(NC(=O)C1CC1C)C(=O)N1CCCC(N1)C(=O)OCC(C)(C)C2
IC50 [1]: > 10000 nM | IC50 [2]: 7630 nM | IC50 [3]: 4860 nM | IC50 [4]: 3490 nM | IC50 [5]: 1330 nM | IC50 [6]: 937 nM | viability, T/C [9]: 64.9% | viability, T/C [10]: 57.4% | viability, T/C [11]: 58% | viability, T/C [12]: 83.2% | viability, T/C (second compound 0.000949 µM, first compound 3.16 µM): 61.3% | viability, T/C (second compound 0.000949 µM, first compound 10 µM): 46.9% | viability, T/C [15]: 55.2% | viability, T/C [16]: 72.1% | viability, T/C [17]: 84.6% | viability, T/C [18]: 82.2% | viability, T/C (second compound 0.003 µM, first compound 3.16 µM): 62.9% | viability, T/C (second compound 0.003 µM, first compound 10 µM): 46% | viability, T/C [21]: 84.1% | viability, T/C [22]: 80% | viability, T/C [23]: 74.1% | viability, T/C [24]: 64.9% | viability, T/C (second compound 0.00949 µM, first compound 3.16 µM): 59.5% | viability, T/C (second compound 0.00949 µM, first compound 10 µM): 38.6% | viability, T/C [27]: 102% | viability, T/C [28]: 97.1% | viability, T/C [29]: 72.4% | viability, T/C [30]: 64% | viability, T/C (second compound 0.03 µM, first compound 3.16 µM): 56.9% | viability, T/C (second compound 0.03 µM, first compound 10 µM): 34.2% | viability, T/C [33]: 91.9% | viability, T/C [34]: 77.6% | viability, T/C [35]: 64.9% | viability, T/C [36]: 52.7% | viability, T/C (second compound 0.0949 µM, first compound 3.16 µM): 41.9% | viability, T/C (second compound 0.0949 µM, first compound 10 µM): 33% | viability, T/C [39]: 77.4% | viability, T/C [40]: 67.7% | viability, T/C [41]: 60% | viability, T/C [42]: 49.3% | viability, T/C (second compound 0.3 µM, first compound 3.16 µM): 39.1% | viability, T/C (second compound 0.3 µM, first compound 10 µM): 26%
